From patent US11712466B2, “Vaccine composition” (TOHOKU UNIVERSITY, priority 2017, dated 2023)
“Also recorded” adds a separate entry of the source. Ends that are not written are not given here.

Key:
mTwist1 = test: Gene expression in excised tumor tissue by real-time PCR, mTwist1; type: in vivo, mouse; settings: tumor excised two weeks after implantation
Method: (§1) The mouse implanted with the tumor cells in Example 2 was sacrificed two weeks after implantation of the tumor cells, and a tumor was excised from the right axillary subcutaneous region. By using RNeasy Plus Kit (Qiagen, Inc.), extraction of the total RNA from the excised tumor and purification thereof were carried out. By using the obtained total RNA as a template, cDNA was synthesized by reverse transcription reaction. The cDNA was analyzed by performing real-time PCR using a mixed solution of the obtained cDNA and SYBR green (TAKARA BIO, Inc.).

[1] = system: antigen peptide (peptide-conjugated BSA); test: Antibody titer in blood of immunized mice by ELISA against antigen peptide; type: in vivo, mouse
Source text: (§2) C57BL/6J male mice aged 8 weeks were purchased from Charles River Laboratories Japan, Inc. After the delivery, the mice were reared in an environment where the room temperature and the light and dark cycles were maintained, and were provided with feed and water ad libitum. As a candidate sequence leading to activation of helper T cells by MHC class II, two peptide sequences: MTGSAADTHR (SEQ ID NO: 4; hereinafter, a peptide composed of the amino acid sequence is referred to as “MTG peptide”) and RRRQASPPRR (SEQ ID NO: 5; hereinafter, a peptide composed of the amino acid sequence is referred to as “RRR peptide”), each of which is not common to VASH1 in the VASH2 sequence were selected (FIG. 1). With respect to these peptides, peptide vaccines using KLH as a carrier were constructed. Note that for the conjugation of each peptide with KLH, a glutaraldehyde method was used. When the amount of the peptide introduced into KLH was measured for each of the obtained peptide vaccines, the amount of MTG was 66 to 70 nmol/mg of the conjugate, and the amount of RRR was 62 to 76 nmol/mg of the conjugate. Subsequently, 5 μg of KLH (control) and 20 μg of each of the KLH-antigen complexes were prepared with physiological saline so that the total amount was 50 μL, respectively, whereby KLH-mixed solutions were obtained. To each of the KLH-mixed solutions (50 μL), an equal amount of complete Freund's adjuvant was added. The obtained mixture was subcutaneously administered to the mice, whereby initial immunization was carried out. After 2 weeks from the administration, booster immunization was carried out by subcutaneously administering a mixture of each of the KLH-mixed solutions (50 μL) and an equal amount of incomplete Freund's adjuvant to the mice. Further, after 2 weeks from the booster immunization (after a total of 4 weeks), an increase in the antibody titer in the blood of each of the immunized mice was verified by ELISA.
The measurement of the antibody titer by ELISA was carried out as follows. After 2 weeks from the booster immunization (after a total of 4 weeks), the blood was collected from the facial vein of each of the immunized mice, and the serum separated from the blood was subjected to ELISA. By using 50 mM carbonate buffer, peptide-conjugated BSA was prepared at 10 μg/mL, and further a recombinant VASH2 protein was prepared at 1 μg/mL, each of which was added at 50 μL/well, and the resultant was left to stand overnight at 4° C. After the solution in each well was removed, 5% skim milk was added at 150 μL/well. […] After 30 minutes, the reaction was stopped by adding 0.5 N H2SO4 at 50 μL/well, and an absorbance (450 nm) was measured using a microplate reader.

[2] = system: mouse lung cancer cells (LLC); test: Metastasis inhibitory effect in vivo, LLC injected through tail vein, lung metastatic lesion; settings: 20 or 100 μg, day 21 after LLC injection
Method: 20 μg or 100 μg of KLH (control) and 20 μg or 100 μg of the peptide represented by SEQ ID NO: 4 conjugated with KLH (MTG peptide vaccine) were prepared with physiological saline so that the total amount was 100 μL, respectively, whereby KLH-mixed solutions were obtained. To each of the KLH-mixed solutions (100 μL), an equal amount of complete Freund's adjuvant or Alhydrogel (registered trademark) (Invitrogen) was added. The obtained mixture (200 μL) was intradermally (ID) administered to C57BL/6J male mice (n=5) aged 8 weeks, whereby initial immunization was carried out (0 day). Incidentally, in the intradermal administration, 200 μL was administered at a dose of 100 μL each to two sites. After 2 weeks from the administration (14 days), booster immunization was carried out by subcutaneously administering a mixture of each of the KLH-mixed solutions (100 μL) and an equal amount of incomplete Freund's adjuvant or Alhydrogel (registered trademark) to the mice. […] Further, at that time point, the blood was collected from each mouse, and the antibody titer of an antibody specific to the VASH2 protein was measured by ELISA. The mice were sacrificed on day 21 after the injection of LLC (49 days), and the lung metastatic lesion was analyzed (FIG. 7). […]

mSnail = test: Gene expression in excised tumor tissue by real-time PCR, mSnail; type: in vivo, mouse; settings: tumor excised two weeks after implantation
Method: as §1

[3] = system: recombinant human VASH2 protein; test: Antibody titer in blood of immunized mice by ELISA against recombinant VASH2 protein; type: in vivo, mouse; settings: for production of an antibody specific to VASH2: Example 5: C57BL/6J mice
Source text: as §2
The measurement of the antibody titer by ELISA was carried out as follows. After 2 weeks from the booster immunization (after a total of 4 weeks), the blood was collected from the facial vein of each of the immunized mice, and the serum separated from the blood was subjected to ELISA. By using 50 mM carbonate buffer, peptide-conjugated BSA was prepared at 10 μg/mL, and further a recombinant VASH2 protein was prepared at 1 μg/mL, each of which was added at 50 μL/well, and the resultant was left to stand overnight at 4° C. After the solution in each well was removed, 5% skim milk was added at 150 μL/well. After the resultant was left to stand at room temperature for 2 hours, the solution was removed, and subsequently, a serum sample diluted by 20 to 62500 times with 5% skim milk was added at 50 μL/well, and the resultant was left to stand overnight at 4° C. Subsequently, washing was carried out with PBS (200 μL/well×6 times), and thereafter, a secondary antibody (HRP-conjugated anti-Mouse IgG) diluted by 1000 times with 5% skim milk was added at 50 μL/well. After the resultant was left to stand at room temperature for 3 hours, washing was carried out with PBS (200 μL/well×3 times). Thereafter, tetramethylbenzidine (TMB) was added at 50 μL/well, and the resultant was left to stand at room temperature under light shielding. After 30 minutes, the reaction was stopped by adding 0.5 N H2SO4 at 50 μL/well, and an absorbance (450 nm) was measured using a microplate reader.

[4] = Example 1: C57BL/6J mice, KLH-antigen complex s.c., Freund's adjuvant, serum 2 weeks after booster (total 4 weeks)
[5] = Example 6: C57BL/6J mice, 20 or 100 μg, Alhydrogel, day 28
[6] = Example 8: C57BL/6Jx129SVJ mice, 100 μg, Alhydrogel, day 28

MTG peptide vaccine: MTG peptide MTGSAADTHR (SEQ ID NO: 4) conjugated with KLH as carrier by a glutaraldehyde method (also: conjugated with KLH by glutaraldehyde)
expression of mTwist1 (epithelial-mesenchymal transition marker) in tumor tissue (mTwist1): dose-dependent expression inhibitory effect; also recorded: significantly inhibited depending on the dose
antibody titer against the antigen peptide [1, 4]: significant concentration-dependent increase
production of an antibody specific to the antigen peptide [1, 5]: promotes the production of an antibody
induced antibody binding to the antigen peptide (MTG) [1, 6]: induced an antibody that binds to both
metastasis of cancer cells (lung metastatic lesion), LLC ([2]; Alhydrogel adjuvant): inhibited metastasis of cancer cells
metastasis of cancer cells (lung metastatic lesion), LLC ([2]; Freund's adjuvant): inhibited metastasis of cancer cells
expression of mSnail (epithelial-mesenchymal transition marker) in tumor tissue (mSnail): dose-dependent expression inhibitory effect; also recorded: significantly inhibited depending on the dose
antibody titer against the recombinant human VASH2 protein [3, 4]: a significant increase in the antibody titer was confirmed; also recorded: a significant increase in the antibody titer was observed
production of an antibody specific to VASH2 ([3]; 20 or 100 μg, Alhydrogel adjuvant, day 28): promoted the production of an antibody specific to VASH2
production of an antibody specific to VASH2 ([3]; 20 or 100 μg, Freund's adjuvant, day 28): promoted the production of an antibody specific to VASH2
production of an antibody specific to the VASH2 recombinant protein [3, 5]: promotes the production of an antibody
induced antibody binding to the VASH2 recombinant protein [3, 6]: induced an antibody that binds to both
